According to article PMC6747724, “Dynamic Metabolic Rewiring Enables Efficient Acetyl Coenzyme A Assimilation in Paracoccus denitrificans” (mBio, 2019):

Target: T1, Isocitrate lyase (Icl) (Paracoccus denitrificans, UniProt A1B1S0)
T1 construct: gene Pden_1363; Recombinant His6-tagged Icl (Pden_1363)
T1 sequence (A1B1S0 1-535): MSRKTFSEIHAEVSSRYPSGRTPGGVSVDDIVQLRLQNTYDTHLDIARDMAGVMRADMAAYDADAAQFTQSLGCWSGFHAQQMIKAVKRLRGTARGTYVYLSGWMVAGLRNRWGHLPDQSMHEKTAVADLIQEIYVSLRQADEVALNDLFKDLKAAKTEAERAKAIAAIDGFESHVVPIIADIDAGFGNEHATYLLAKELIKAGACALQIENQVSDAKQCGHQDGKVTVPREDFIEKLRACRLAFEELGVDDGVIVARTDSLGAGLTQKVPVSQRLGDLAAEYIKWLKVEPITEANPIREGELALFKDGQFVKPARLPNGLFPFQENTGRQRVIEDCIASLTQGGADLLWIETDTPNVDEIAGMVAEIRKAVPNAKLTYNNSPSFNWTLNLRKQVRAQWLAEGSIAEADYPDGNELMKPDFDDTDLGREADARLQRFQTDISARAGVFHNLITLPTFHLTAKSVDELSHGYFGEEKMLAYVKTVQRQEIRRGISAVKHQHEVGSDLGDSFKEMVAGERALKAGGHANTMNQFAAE
Assay: spectrophotometric phenylhydrazine-glyoxylate assay with purified enzyme, […] min preincubation with 3-NPA at […]°C
Type: biochemical

O=C(O)CC[N+](=O)[O-] [3-NPA, 3-nitropropionate]
IC50: 34 µM
